# Data from patent US20060111447A1, “Inhibiting progressive cognitive impairment” (priority 2002, published 2006).
# Where two headings read alike, the source gives them in different places.
# How the values were obtained:
# [1] = cited from earlier work
# [2] = tested on: PGE2; conditions: mice, same brain, nimesulide 1500 mg/kg of diet for three months
# [3] = tested on: Aβ40; conditions: CHO cells with APPswe and hCOX-2, nimesulide concentrations down to 10^−12 M
# Source text: FIG. 10A-C. […] (C) Aβ42 levels in CHO cells transfected with APPswe and LacZ (open bars) or with APPswe and hCOX-2 (filled bars). Data are expressed as means±S.E.M. (percent of control LacZ transfection from three independent studies).
# Using an adenovirus vector, hCOX-2 was transfected and expressed in CHO cells which had been stably transfected with APPswe (see above).
# [4] = tested on: Aβ42
# Source text: (§1) FIG. 11A-B. CHO cells were transfected with APPswe and LacZ (open bars) or with APPswe and hCOX-2(filled bars), as in FIG. 10A-C.
# [5] = clinical; conditions: human, po, 100 mg twice daily
# Description: A tolerability study was performed in elderly human subjects (Aisen et al., 2002, Neurology 58(7):1050-1054).
# [6] = tested on: γ-secretase
# Description: as §1
# CHO cells were transfected with APPswe and LacZ (open bars) or with APPswe and hCOX-2 (filled bars), as in the preceding Section 11, and γ-secretase and Aβ42 levels were measured.
# [7] = in vivo; conditions: B6SJ1, mouse, brain relative to serum, oral, 1500 mg/kg of diet, level of nimesulide in the brain relative to serum levels, mice, nimesulide 1500 mg/kg of diet for three months, brain parenchyma
# [8] = mice
# [9] = tested on: Aβ42; conditions: CHO-APPswe cells, 0.1 micromolar, 24 hours
# Description: (§2) The amount of amyloid β peptides produced was measured by an ELISA assay from BioSource (Camarillo, Calif.). Samples were diluted 1:10 in buffer (0.05% (v/v) Tween-20, 1 mM Pefabloc protease inhibitors) followed by centrifugation for 20 minutes at 4° C. Total Aβ40 or Aβ42 were measured by sandwich ELISA following the manufacturer's instructions.
# [10] = tested on: Aβ40; conditions: CHO-APPswe cells, 0.1 micromolar, 24 hours
# Description: as §2
# [11] = tested on: complement ClqB; conditions: in vivo; cited from earlier work
# [12] = tested on: γ-secretase; conditions: CHO-APPswe cells, 0.1 micromolar, 24 hours
# [13] = tested on: sAPPα; assay: sAPPα levels in SY5Y neuroblastoma cells (6E10 immunoreactivity, Western blot); format: cell-based; conditions: 1 μM and 5 μM
# [14] = CHO-APPswe cells transfected with hCOX-2, 10^−9 molar
SMILES,"tolerability, long term treatment ([1]; clinical study, up to 104 weeks)",cognitive benefit in AD patients ([1]; twelve-week clinical trial),tolerability in AD patients ([1]; twelve-week clinical trial),decrease of PGE2 content [2],effect on hCOX-2 mediated increase in Aβ40 levels [3],"effect on hCOX-2 increased Aβ42 concentration ([4]; CHO-APPswe cells transfected with hCOX-2, 10^−6 molar)","effect on hCOX-2 increased Aβ42 concentration [4, 14]",concentration at 24 weeks ([5]; brain) [µM],concentration at 24 weeks ([5]; serum) [µM],"effect on hCOX-2 mediated increase of γ-secretase activity [6, 14]","additional decrease of γ-secretase levels ([6]; both hCOX-2 and LacZ-transfected CHO-APPswe cells, 10^−6 molar)",Kp at 3 months [7],necropsy findings ([8]; nimesulide 1500 mg/kg of diet (50 mg/kg per day) for 3 months),tolerability ([8]; nimesulide 1500 mg/kg of diet for 3 months),decrease of the amount of Aβ42 [9],decrease of the amount of Aβ40 [10],effect on hCOX-2 induced increase of ClqB levels in the brain [11],inhibition of γ-secretase activity [12],levels of sAPPα relative to controls (6E10 immunoreactivity) [13]
"CS(=O)(=O)Nc1ccc([N+](=O)[O-])cc1Oc1ccccc1 [nimesulide, 4-nitro-2-phenoxymethanesulfonanilide]",well tolerated,no cognitive benefit was observed,well tolerated,approximately 50%,virtually nullified,decreased to essentially control levels,slightly decreased,~1,~10,decreased to control levels,10-15%,~0.1,did not demonstrate any gross alterations or renal or intestinal abnormalities,well tolerated,20-25%,20-25%,able to block that increase,approximately 40%,–
CS(=O)(=O)c1ccc(C2=C(c3ccccc3)C(=O)OC2)cc1 [Rofecoxib],–,–,–,–,–,–,–,–,–,–,–,–,–,–,–,–,–,–,decreased
